For eight compounds, IC50 results are on record in US7829557B2, “2-heterosubstituted 3-aryl-4H-1-benzopyran-4-ones as novel therapeutics in breast cancer” (The Ohio State University Research Foundation, priority 2006, dated 2010).

Where two headings read alike, the source gives them in different places.

A word on the IC50: it is the concentration at which inhibition is half-maximal.

The subject of one test is MCF-7 cells. The test is described as follows: Dose response / IC50 for effects on proliferation in MCF-7 cells. The class given is cell-based, human. Here is the method:
Several members of the combinatorial library that was prepared in accordance with the methods of this invention have been tested for effects on proliferation in MCF-7 cells and MDA-MB-231 cells.
Dose response studies were performed with compounds from the combinatorial library. Compounds 234, 220, 244, 230, 258, YWK-II-14 and 4-OH-Tamoxifen were performed.
IC50 ranges for several members of the combinatorial library were within 95% confidence intervals.

Test [1] relates to human breast cancer cell lines. As to the kind of experiment: Suppression of proliferation of human breast cancer cell lines. The test is classed as cell-based. The note with it: suppressing proliferation of human breast cancer cell lines; most potent of the series. The source says:
Thus, we designed and synthesized several isoflavones containing a basic side chain connected through either an oxygen or a sulfur linkage (synthetic scheme—FIG. 9).

The mark [2] stands for this setting: 95% confidence interval, no unit in this head, cell line taken from Example 5 (MCF-7), read-out: IC50 Range.
Setting [3] is: from GraphPad Prism fit, read-out: IC50 (From Program).
Setting [4] is: midpoint and half-width of the IC50 range, read-out: IC50 ± ΔIC50.

Turning to `CC/C(=C(\c1ccc(O)cc1)c1ccc(OCCN(C)C)cc1)c1ccccc1` [4-OH Tamoxifen, reference compound], the results for the IC50 in the test on MCF-7 cells (setting [2]), in the test on MCF-7 cells (setting [3]) and in the test with MCF-7 cells (setting [4]) were 3.61 to 4.93 µM, 4.22 µM and 4.27 ± 0.66 µM, respectively.
The corresponding values for `COc1ccc(-c2c(Oc3ccc(OCCN4CCCCC4)cc3)oc3cc(O)ccc3c2=O)cc1` [YWK-II-14] are roughly 6.31 µM, roughly 6.31 µM and roughly 6.31 µM.
`COc1ccc(-c2c(Sc3ccc(OCCN4CCCCC4)cc3)oc3cc(OCc4ccccc4)ccc3c2=O)cc1` [Compound 230]: the concentration for half-maximal inhibition (IC50) in the test on MCF-7 cells (setting [2]) is 2.41 to 7.23 µM; in the test on MCF-7 cells (setting [3]), 4.17 µM; in the test with MCF-7 cells (setting [4]) it was 4.82 ± 2.41 µM.
Taken in the same sequence, the figures for `COc1ccc(-c2c(Sc3ccc(OCCN4CCCCC4)cc3)oc3cc(O)ccc3c2=O)cc1` [Compound 234] were 0.36 to 0.92 µM, 0.58 µM and 0.64 ± 0.28 µM.
`COc1ccc(-c2c(Sc3ccc(OCCN4CCCCC4)cc3)oc3cc(O)ccc3c2=O)cc1` [Compound 310a] gave an IC50 in test [1] of 0.058 µM.
On to `O=c1c(-c2ccc(O)cc2)c(Sc2ccc(O)cc2)oc2cc(O)ccc12` [Compound 244], for which the IC50 in the test on MCF-7 cells (setting [2]) was 7.86 to 15.7 µM; in the test with MCF-7 cells (setting [3]) it was 11.1 µM; in the test with MCF-7 cells (setting [4]), 11.8 ± 3.94 µM.
Taken in the same sequence, the figures for `COc1ccc(-c2c(Oc3ccc(OCCN4CCCCC4)cc3)oc3cc(OCc4ccccc4)ccc3c2=O)cc1` [Compound 258] were 2.3 to 5.88 µM, 3.67 µM and 4.09 ± 1.79 µM.
The corresponding values for `COc1ccc(-c2c(Sc3ccc(O)cc3)oc3cc(OCc4ccccc4)ccc3c2=O)cc1` [Compound 220] are 2.87 to 7.68 µM, 4.7 µM and 5.28 ± 2.4 µM.
